Broadly, the solubility is the dissolved amount per volume that the medium holds. High values mean much dissolved substance, low ones little dissolved substance.

Read-outs that look alike come from different tables or passages of the source.

A short description of series [1]: Particle size distribution by laser diffraction (Malvern Mastersizer 3000, circulating aqueous suspension). It counts as physicochemical. The following applies: volume distribution. As for the experimental part: For the purpose of this invention, particle size distribution is determined as the percent volume at each particle size and measured by a laser diffraction method in the context of a circulating aqueous suspension. A Malvern Mastersizer 3000 laser diffraction analyzer equipped with a Hydro EV measurement cell was used. About 50 mg of sample were filled into a 15 ml glass test tube. The sample was wetted with two drops of Tween 80 and vortexed. Then the thoroughly wetted sample was dispersed in about 7 mL of UHQ-water by vortexing until the particles were dispersed. The suspension was treated for 7 minutes in an ultrasonification bath at RT (Elma S50H). The well dispersed suspension was then measured in water by adding a sample from the center of the test tube containing the well dispersed suspension to a water-filled dispersion unit prefilled with 70 mL of water. The sample in the 70 mL dispersion unit was kept under stirring at 2000 rpm. More sample from the test tube was added, until a targeted obscuration range of 10-25 percent was achieved. The Malvern Mastersizer was operated using the following parameters:
Measurement occurred after an optical alignment of the laser was done and after a background measurement was run. A measurement sequence consisted of eight individual measurements for which the mean value was represented as a histogram.
d90 as used herein means that 90% of the particles (based on volume) are smaller than or equal to the indicated size.
d50 as used herein means that 50% of the particles (based on volume) are smaller than or equal to the indicated size.
d10 as used herein means that 10% of the particles (based on volume) are smaller than or equal to the indicated size.
Particle size distribution was measured with a Malvern Mastersizer 3000 laser diffraction analyzer equipped with a Hydro EV measurement cell. About 50 mg of sample were given into a test tube. The sample was wetted with two drops of Tween 80 and dispersed in about 7 ml of water on a Vortexer. The suspension was treated for 7 minutes in a ultrasonification bath (Elma S50H). The well dispersed suspension was afterwards measured in water at a targeted obscuration range of 10-25 percent while circulating the aqueous suspension and stirring the suspension reservoir at 2000 rpm after a waiting period of three minutes. A fraunhofer optical model was utilized to deconvolute the sample scattering patterns to yield the resultant particle size distributions. Analysis model: General purpose/normal sensitivity. Measuring/background time: about 10 sec

Series [2] is described as follows: Polymorphic stability of brexpiprazole dihydrate during wet ball milling, checked by PXRD. The following applies: ball mill 25 Hz, 0.2 mL water, 10° C. In kind it is physicochemical. The procedure: The powder X-ray diffractogram was obtained with a PANalytical X'Pert PRO diffractometer equipped with a theta/theta coupled goniometer in transmission geometry, Cu-Kalpha1,2 radiation (wavelength 0.15419 nm) with a focusing mirror and a solid state PIXcel detector. The diffractogram was recorded at a tube voltage of 45 kV and a tube current of 40 mA, applying a stepsize of 0.013° 2-Theta with 40 s per step (255 channels) in the angular range of 2° to 40° 2-Theta at ambient conditions. A typical precision of the 2-Theta values is in the range of ±0.2° 2-Theta. […]
500 mg brexpiprazole dihydrate from comparative example 1 were milled in the presence of 0.2 mL water at 10° C. with a Retsch MM301 ball mill at 25 Hz for 5 min (1.5 ml jacket and 1 steel ball of 5 mm diameter). The obtained micronized crystalline material was analysed by PXRD and PSD. […] (Determined by the laser diffraction method in the context of a circulating aqueous suspension as the percent volume at each particle size and measured by a Malvern Mastersizer 3000 laser diffraction analyzer.)
500 mg brexpiprazole dihydrate from comparative example 1 were milled in the presence of 0.2 mL water at 10° C. with a Retsch MM301 ball mill at 25 Hz for 15 min (1.5 ml jacket and 1 steel ball of 5 mm diameter). The obtained micronized crystalline material was analysed by PXRD and PSD. […]

The conditions of series [3]: rats, intramuscular injection, 56 days after the injection, cited from earlier work.
Series [4] can be described thus: Solubility in water at 25° C. It counts as physicochemical. An excerpt:
The brexpiprazole dihydrate can then be added to an aqueous medium in which it is hardly soluble to form a suspension.

Turning to `O=c1ccc2ccc(OCCCCN3CCN(c4cccc5sccc45)CC3)cc2[nH]1` [Example 1], in series [1], the “particle size distribution d10” value is 1.35 μm, the “particle size distribution d50” value was 8.24 μm and the “particle size distribution d90” value is 21 μm. In series [2] (5 min), the “transformation of dihydrate to anhydrate form I during micronization (PXRD peaks at 6.8° and 17.4°)” value is given as “had not transformed to brexpiprazole anhydrate form I”.

For the compound `O=c1ccc2ccc(OCCCCN3CCN(c4cccc5sccc45)CC3)cc2[nH]1` [Example 2], in series [1], the “particle size distribution d10” value is 1.15 μm, the “particle size distribution d50” value came to 7.04 μm and the “particle size distribution d90” value is recorded as 19 μm. In series [2] (15 min), the “transformation of dihydrate to anhydrate form I during micronization (PXRD peaks at 6.8°, 10.0° and 17.4°)” value is “had not transformed to brexpiprazole anhydrate form I”.

On to `O=c1ccc2ccc(OCCCCN3CCN(c4cccc5sccc45)CC3)cc2[nH]1` [brexpiprazole anhydrate], for which the “crystals detectable at the injection site” value in series [3] is “no longer detectable”. The “solubility at 25° C. in water” value in series [4] was found to be 18 µg/mL.

For the compound `O=c1ccc2ccc(OCCCCN3CCN(c4cccc5sccc45)CC3)cc2[nH]1` [brexpiprazole dihydrate, 7-[4-[4-(1-Benzothiophen-4-yl)piperazin-1-yl]butoxy]quinolin-2(1H)-one dihydrate], the “particle size distribution d90” value in series [1] (listed as Reference Example 1, dihydrate) is given as “above 25 μm”. In series [3] (dihydrate), the “crystals detectable at the injection site” value is “can still be detected”. The compound also yielded a solubility in series [4] (25 °C) of 10 µg/mL.

Source of the values: US10501450B2, “Anhydrate-free polymorphically pure micronized crystalline brexpiprazole di-hydrate for use in intramuscular injectable sustained release formulations” (HEXAL AG, priority 2016, dated 2019).
